The values below come from the supplement of paper PMC10307832.

Test in all cases: relative viability (nuclei count vs DMSO), 5 days (fraction); higher = more cells survive
Compound in test [1]: CCCS(=O)(=O)Nc1ccc(F)c(C(=O)c2c[nH]c3ncc(-c4ccc(Cl)cc4)cc23)c1F [Vemurafenib] + CC(=O)c1c(C)c2cnc(Nc3ccc(N4CCNCC4)cn3)nc2n(C2CCCC2)c1=O [Palbociclib] (partner 0.5 µM)
In short, it runs like this: (§1)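 Lung cancer cell lines in 1536-well plates were dosed by pin tool the day after seeding, either with one drug alone or with a fixed anchor-drug dose plus five library-drug doses (not always all listed) in √10 steps. After 5 days, cells were fixed and their nuclei stained in one step (final 0.05% Triton X-100, 1% formaldehyde, 1 ug/ml Hoechst), then counted on 4× images. Relative viability is the nuclei count in treated wells divided by that in vehicle wells. Values are medians of duplicate plates.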

Compound in the test “Vemurafenib + Luminespib”: CCCS(=O)(=O)Nc1ccc(F)c(C(=O)c2c[nH]c3ncc(-c4ccc(Cl)cc4)cc23)c1F [Vemurafenib] + CCNC(=O)c1noc(-c2cc(C(C)C)c(O)cc2O)c1-c1ccc(CN2CCOCC2)cc1 [Luminespib] (partner 0.01 µM)
A digest of the protocol: as §1

Compound in the test “OSI-027 + Alpelisib”: COc1cccc2cc(-c3nc([C@H]4CC[C@H](C(=O)O)CC4)n4ncnc(N)c34)[nH]c12 [OSI-027] + Cc1nc(NC(=O)N2CCC[C@H]2C(N)=O)sc1-c1ccnc(C(C)(C)C(F)(F)F)c1 [Alpelisib] (partner 2 µM)
In short, it runs like this:
as §1

Compound in the test “OSI-027 + AZD7762”: COc1cccc2cc(-c3nc([C@H]4CC[C@H](C(=O)O)CC4)n4ncnc(N)c34)[nH]c12 [OSI-027] + NC(=O)Nc1cc(-c2cccc(F)c2)sc1C(=O)N[C@H]1CCCNC1 [AZD7762] (partner 0.2 µM)
In short, it runs like this:
as §1

On to LC-2-ad, for which the relative viability in test [1] (first compound 0.03162 µM) came to 0.449; in test [1] (first compound 0.1 µM) it was 0.466; in test [1] (first compound 0.3162 µM), 0.481; in test [1] (first compound 1 µM), 0.442; with Vemurafenib + Luminespib (first compound 0.03162 µM), 0.887; in the test with Vemurafenib + Luminespib (first compound 0.1 µM), 0.978. Further, the relative viability turned out to be 1.05 in the test with Vemurafenib + Luminespib (first compound 1 µM); 0.886 in the test with OSI-027 + Alpelisib (first compound 0.01 µM); 0.876 in the test with OSI-027 + Alpelisib (first compound 0.03162 µM); 0.723 with OSI-027 + Alpelisib (first compound 0.1 µM); 0.74 in the test with OSI-027 + Alpelisib (first compound 0.3162 µM); 0.304 with OSI-027 + Alpelisib (first compound 1 µM). Further, the relative viability with OSI-027 + AZD7762 (first compound 0.01 µM) was 0.835; with OSI-027 + AZD7762 (first compound 0.03162 µM), 0.77; in the test with OSI-027 + AZD7762 (first compound 0.1 µM), 0.879; with OSI-027 + AZD7762 (first compound 0.3162 µM), 0.894; with OSI-027 + AZD7762 (first compound 1 µM), 0.615.
Consider NCI-H2126, for which the relative viability amounted to 0.328 in test [1] (first compound 0.03162 µM); 0.354 in test [1] (first compound 0.1 µM); 0.344 in test [1] (first compound 0.3162 µM); 0.333 in test [1] (first compound 1 µM); 0.847 with Vemurafenib + Luminespib (first compound 0.03162 µM); 0.905 with Vemurafenib + Luminespib (first compound 0.1 µM). In addition, the relative viability was determined as 0.972 with Vemurafenib + Luminespib (first compound 1 µM); 0.764 with OSI-027 + Alpelisib (first compound 0.01 µM); 0.69 with OSI-027 + Alpelisib (first compound 0.03162 µM); 0.694 with OSI-027 + Alpelisib (first compound 0.1 µM); 0.603 with OSI-027 + Alpelisib (first compound 0.3162 µM); 0.399 with OSI-027 + Alpelisib (first compound 1 µM). Also, the relative viability came to 0.975 in the test with OSI-027 + AZD7762 (first compound 0.01 µM); 0.954 with OSI-027 + AZD7762 (first compound 0.03162 µM); 0.998 in the test with OSI-027 + AZD7762 (first compound 0.1 µM); 0.868 in the test with OSI-027 + AZD7762 (first compound 0.3162 µM); 0.819 with OSI-027 + AZD7762 (first compound 1 µM).
In the case of HCC-44, the relative viability came out at 0.957 in test [1] (first compound 0.03162 µM); 0.887 in test [1] (first compound 0.1 µM); 0.957 in test [1] (first compound 0.3162 µM); 0.926 in test [1] (first compound 1 µM); 0.915 with Vemurafenib + Luminespib (first compound 0.03162 µM); 1.19 with Vemurafenib + Luminespib (first compound 0.1 µM). Also, the relative viability is 1.07 with Vemurafenib + Luminespib (first compound 1 µM); 0.795 in the test with OSI-027 + Alpelisib (first compound 0.01 µM); 0.775 with OSI-027 + Alpelisib (first compound 0.03162 µM); 0.738 with OSI-027 + Alpelisib (first compound 0.1 µM); 0.574 with OSI-027 + Alpelisib (first compound 0.3162 µM); 0.215 in the test with OSI-027 + Alpelisib (first compound 1 µM). Also, the relative viability in the test with OSI-027 + AZD7762 (first compound 0.01 µM) stood at 0.984; with OSI-027 + AZD7762 (first compound 0.03162 µM), 1.03; with OSI-027 + AZD7762 (first compound 0.1 µM), 1.03; with OSI-027 + AZD7762 (first compound 0.3162 µM), 1.06; with OSI-027 + AZD7762 (first compound 1 µM) it was 1.1.
For the cell line HOP-62, the relative viability came to 0.436 in test [1] (first compound 0.03162 µM); 0.437 in test [1] (first compound 0.1 µM); 0.371 in test [1] (first compound 0.3162 µM); 0.396 in test [1] (first compound 1 µM); 0.902 in the test with Vemurafenib + Luminespib (first compound 0.03162 µM); 0.843 with Vemurafenib + Luminespib (first compound 0.1 µM). For the same cell line, the relative viability with Vemurafenib + Luminespib (first compound 0.3162 µM) came out at 0.931; with Vemurafenib + Luminespib (first compound 1 µM), 0.971; with OSI-027 + Alpelisib (first compound 0.01 µM), 1.13; with OSI-027 + Alpelisib (first compound 0.03162 µM), 0.881; in the test with OSI-027 + Alpelisib (first compound 0.1 µM), 0.934; with OSI-027 + Alpelisib (first compound 0.3162 µM), 0.81. For the same cell line, the relative viability with OSI-027 + Alpelisib (first compound 1 µM) was determined as 0.333; with OSI-027 + AZD7762 (first compound 0.01 µM) it was 0.611; with OSI-027 + AZD7762 (first compound 0.03162 µM), 0.47; with OSI-027 + AZD7762 (first compound 0.1 µM) it was 0.33; with OSI-027 + AZD7762 (first compound 0.3162 µM) it was 0.587; in the test with OSI-027 + AZD7762 (first compound 1 µM), 0.284.
Consider LCLC-103H, for which the relative viability was determined as 0.426 in test [1] (first compound 0.03162 µM); 0.448 in test [1] (first compound 0.1 µM); 0.501 in test [1] (first compound 0.3162 µM); 0.467 in test [1] (first compound 1 µM); 0.914 with Vemurafenib + Luminespib (first compound 0.03162 µM); 0.805 in the test with Vemurafenib + Luminespib (first compound 0.1 µM). In addition, the relative viability with Vemurafenib + Luminespib (first compound 0.3162 µM) was 0.899; with Vemurafenib + Luminespib (first compound 1 µM), 0.967; with OSI-027 + Alpelisib (first compound 0.01 µM), 0.852; with OSI-027 + Alpelisib (first compound 0.03162 µM), 0.922; in the test with OSI-027 + Alpelisib (first compound 0.1 µM) it was 0.991; in the test with OSI-027 + Alpelisib (first compound 0.3162 µM), 0.877. Moreover, the relative viability with OSI-027 + Alpelisib (first compound 1 µM) was 0.767; with OSI-027 + AZD7762 (first compound 0.01 µM) it was 0.8; with OSI-027 + AZD7762 (first compound 0.03162 µM), 0.717; with OSI-027 + AZD7762 (first compound 0.1 µM) it was 0.748; with OSI-027 + AZD7762 (first compound 0.3162 µM) it was 0.64; with OSI-027 + AZD7762 (first compound 1 µM) it was 0.542.
Take HARA: the relative viability in test [1] (first compound 0.03162 µM) came out at 0.26; in test [1] (first compound 0.1 µM), 0.17; in test [1] (first compound 0.3162 µM), 0.304; in test [1] (first compound 1 µM), 0.318; with Vemurafenib + Luminespib (first compound 0.03162 µM) it was 0.482; with Vemurafenib + Luminespib (first compound 0.1 µM), 0.6. Besides, the relative viability is 0.638 with Vemurafenib + Luminespib (first compound 0.3162 µM); 0.814 in the test with Vemurafenib + Luminespib (first compound 1 µM); 0.81 in the test with OSI-027 + Alpelisib (first compound 0.01 µM); 0.655 in the test with OSI-027 + Alpelisib (first compound 0.03162 µM); 0.785 with OSI-027 + Alpelisib (first compound 0.1 µM); 0.495 with OSI-027 + Alpelisib (first compound 0.3162 µM). In addition, the relative viability with OSI-027 + Alpelisib (first compound 1 µM) came to 0.291; with OSI-027 + AZD7762 (first compound 0.01 µM) it was 0.27; with OSI-027 + AZD7762 (first compound 0.03162 µM), 0.301; in the test with OSI-027 + AZD7762 (first compound 0.1 µM) it was 0.36; in the test with OSI-027 + AZD7762 (first compound 0.3162 µM), 0.419; with OSI-027 + AZD7762 (first compound 1 µM) it was 0.365.
NCI-H2087: the relative viability in test [1] (first compound 0.03162 µM) was 0.204; in test [1] (first compound 0.1 µM), 0.222; in test [1] (first compound 0.3162 µM), 0.266; in test [1] (first compound 1 µM), 0.275; with Vemurafenib + Luminespib (first compound 0.03162 µM) it was 0.166; with Vemurafenib + Luminespib (first compound 0.1 µM), 0.185. In addition, the relative viability in the test with Vemurafenib + Luminespib (first compound 1 µM) turned out to be 0.162; in the test with OSI-027 + Alpelisib (first compound 0.01 µM), 1.12; in the test with OSI-027 + Alpelisib (first compound 0.03162 µM), 1.21; with OSI-027 + Alpelisib (first compound 0.1 µM) it was 0.947; in the test with OSI-027 + Alpelisib (first compound 0.3162 µM), 0.625; in the test with OSI-027 + Alpelisib (first compound 1 µM) it was 0.398. The relative viability with OSI-027 + AZD7762 (first compound 0.01 µM) amounted to 1.32; with OSI-027 + AZD7762 (first compound 0.03162 µM) it was 1.1; with OSI-027 + AZD7762 (first compound 0.1 µM), 1.4; with OSI-027 + AZD7762 (first compound 0.3162 µM), 1.1; with OSI-027 + AZD7762 (first compound 1 µM), 0.929.
As to NCI-H1437, the relative viability in test [1] (first compound 0.03162 µM) is 0.311; in test [1] (first compound 0.1 µM), 0.307; in test [1] (first compound 0.3162 µM), 0.311; in test [1] (first compound 1 µM), 0.346; in the test with Vemurafenib + Luminespib (first compound 0.03162 µM), 1.09; with Vemurafenib + Luminespib (first compound 0.1 µM), 1.07. The relative viability came out at 1.2 with Vemurafenib + Luminespib (first compound 0.3162 µM); 1.12 in the test with Vemurafenib + Luminespib (first compound 1 µM); 1 with OSI-027 + Alpelisib (first compound 0.01 µM); 0.676 with OSI-027 + Alpelisib (first compound 0.03162 µM); 0.895 in the test with OSI-027 + Alpelisib (first compound 0.1 µM); 0.521 with OSI-027 + Alpelisib (first compound 0.3162 µM). Besides, the relative viability in the test with OSI-027 + Alpelisib (first compound 1 µM) turned out to be 0.272; with OSI-027 + AZD7762 (first compound 0.01 µM), 1.11; with OSI-027 + AZD7762 (first compound 0.03162 µM), 1.02; in the test with OSI-027 + AZD7762 (first compound 0.1 µM), 1.14; with OSI-027 + AZD7762 (first compound 0.3162 µM), 1; with OSI-027 + AZD7762 (first compound 1 µM), 0.566.
